Results reported in ChEMBL document CHEMBL5465560, “Selectivity Literature for EUbOPEN Chemogenomic Library” (2024).
Each block holds one molecule with its values, some of them ahead of it.

Key:
[1] = target: Interleukin-1 receptor-associated kinase 1 (Homo sapiens) (UniProt P51617); test: Selectivity interaction (Adapta Assay) EUB0001632a IRAK1; conditions: at 10 µM
[2] = target: Serine/threonine-protein kinase Nek7 (Homo sapiens) (UniProt Q8TDX7); test: Selectivity interaction (SelectScreen profiling (Invitrogen)) EUB0000607a NEK7; conditions: at 2 µM
[3] = target: Platelet-derived growth factor receptor alpha (Homo sapiens, UniProt P16234); conditions: at 10 µM
[4] = target: T1, Protein kinase C zeta type (Homo sapiens) (UniProt Q05513); test: Selectivity interaction (Kinase panel (Invitrogen)) EUB0000639a PRKCZ; conditions: at 200 nM
T1 sequence (whole entry): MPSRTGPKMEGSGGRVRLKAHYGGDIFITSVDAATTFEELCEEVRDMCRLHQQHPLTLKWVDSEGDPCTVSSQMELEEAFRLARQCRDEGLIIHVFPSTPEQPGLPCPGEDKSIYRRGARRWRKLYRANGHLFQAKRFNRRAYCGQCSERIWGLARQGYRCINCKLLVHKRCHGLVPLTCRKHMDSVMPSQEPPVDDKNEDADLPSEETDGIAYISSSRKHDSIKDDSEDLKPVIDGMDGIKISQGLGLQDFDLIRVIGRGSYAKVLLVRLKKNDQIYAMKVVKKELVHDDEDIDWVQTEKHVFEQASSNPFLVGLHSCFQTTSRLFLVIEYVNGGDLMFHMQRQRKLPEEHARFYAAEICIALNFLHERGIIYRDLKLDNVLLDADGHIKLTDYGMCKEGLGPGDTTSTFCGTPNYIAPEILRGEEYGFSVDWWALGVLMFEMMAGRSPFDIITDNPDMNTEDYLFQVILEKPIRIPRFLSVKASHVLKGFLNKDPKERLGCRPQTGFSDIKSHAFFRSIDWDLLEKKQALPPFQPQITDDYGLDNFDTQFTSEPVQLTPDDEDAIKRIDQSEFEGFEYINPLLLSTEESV

[5] = target: Serine/threonine-protein kinase PRP4 homolog (Homo sapiens) (UniProt Q13523); test: Selectivity interaction (KinomeScan (DiscoverX)) EUB0001079a PRPF4B; conditions: at 1 µM
[6] = target: T2, Mitogen-activated protein kinase kinase kinase 5 (Homo sapiens) (UniProt Q99683); test: Selectivity interaction (ActivX KiNativ screen (ex vivo kinase selectivity in human PBMCs)) EUB0001619a MAP3K5; format: cell-based; conditions: PBMC, at 1 µM
T2 sequence (whole entry): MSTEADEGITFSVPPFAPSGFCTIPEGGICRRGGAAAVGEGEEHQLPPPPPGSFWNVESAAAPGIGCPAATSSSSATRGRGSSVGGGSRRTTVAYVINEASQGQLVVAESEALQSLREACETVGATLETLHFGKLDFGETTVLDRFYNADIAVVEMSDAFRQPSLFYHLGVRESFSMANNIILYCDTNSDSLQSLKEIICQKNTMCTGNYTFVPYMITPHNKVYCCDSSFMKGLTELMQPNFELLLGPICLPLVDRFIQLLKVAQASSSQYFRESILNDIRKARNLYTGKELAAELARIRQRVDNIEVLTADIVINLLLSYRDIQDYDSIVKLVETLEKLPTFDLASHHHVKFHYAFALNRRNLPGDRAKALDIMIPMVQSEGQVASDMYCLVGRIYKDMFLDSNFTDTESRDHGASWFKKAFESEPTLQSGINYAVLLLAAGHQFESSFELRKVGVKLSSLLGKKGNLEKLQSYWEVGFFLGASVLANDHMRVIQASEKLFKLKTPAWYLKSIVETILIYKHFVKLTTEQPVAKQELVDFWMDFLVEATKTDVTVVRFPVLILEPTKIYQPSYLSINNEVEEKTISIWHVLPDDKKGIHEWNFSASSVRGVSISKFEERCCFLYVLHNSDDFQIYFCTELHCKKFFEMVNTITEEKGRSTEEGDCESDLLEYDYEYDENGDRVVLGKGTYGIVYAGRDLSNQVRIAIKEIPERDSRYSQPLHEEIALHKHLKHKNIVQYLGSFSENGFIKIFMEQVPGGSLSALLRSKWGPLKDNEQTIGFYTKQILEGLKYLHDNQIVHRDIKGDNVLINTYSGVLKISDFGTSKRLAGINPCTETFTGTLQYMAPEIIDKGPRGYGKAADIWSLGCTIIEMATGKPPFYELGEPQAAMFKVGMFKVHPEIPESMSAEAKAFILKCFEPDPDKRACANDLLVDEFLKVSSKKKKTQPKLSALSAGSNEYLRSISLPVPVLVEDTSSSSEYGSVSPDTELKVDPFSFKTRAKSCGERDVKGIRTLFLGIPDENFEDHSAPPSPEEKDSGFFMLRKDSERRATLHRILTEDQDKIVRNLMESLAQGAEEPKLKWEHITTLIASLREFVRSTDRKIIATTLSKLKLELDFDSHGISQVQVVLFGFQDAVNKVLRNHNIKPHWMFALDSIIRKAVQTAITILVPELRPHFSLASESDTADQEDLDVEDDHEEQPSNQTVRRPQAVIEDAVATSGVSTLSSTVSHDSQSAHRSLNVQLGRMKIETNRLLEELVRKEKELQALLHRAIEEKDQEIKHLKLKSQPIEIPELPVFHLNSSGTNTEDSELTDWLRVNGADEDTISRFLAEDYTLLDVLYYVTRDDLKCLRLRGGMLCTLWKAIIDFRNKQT

Chain of Platelet-derived growth factor receptor alpha (P16234 whole entry): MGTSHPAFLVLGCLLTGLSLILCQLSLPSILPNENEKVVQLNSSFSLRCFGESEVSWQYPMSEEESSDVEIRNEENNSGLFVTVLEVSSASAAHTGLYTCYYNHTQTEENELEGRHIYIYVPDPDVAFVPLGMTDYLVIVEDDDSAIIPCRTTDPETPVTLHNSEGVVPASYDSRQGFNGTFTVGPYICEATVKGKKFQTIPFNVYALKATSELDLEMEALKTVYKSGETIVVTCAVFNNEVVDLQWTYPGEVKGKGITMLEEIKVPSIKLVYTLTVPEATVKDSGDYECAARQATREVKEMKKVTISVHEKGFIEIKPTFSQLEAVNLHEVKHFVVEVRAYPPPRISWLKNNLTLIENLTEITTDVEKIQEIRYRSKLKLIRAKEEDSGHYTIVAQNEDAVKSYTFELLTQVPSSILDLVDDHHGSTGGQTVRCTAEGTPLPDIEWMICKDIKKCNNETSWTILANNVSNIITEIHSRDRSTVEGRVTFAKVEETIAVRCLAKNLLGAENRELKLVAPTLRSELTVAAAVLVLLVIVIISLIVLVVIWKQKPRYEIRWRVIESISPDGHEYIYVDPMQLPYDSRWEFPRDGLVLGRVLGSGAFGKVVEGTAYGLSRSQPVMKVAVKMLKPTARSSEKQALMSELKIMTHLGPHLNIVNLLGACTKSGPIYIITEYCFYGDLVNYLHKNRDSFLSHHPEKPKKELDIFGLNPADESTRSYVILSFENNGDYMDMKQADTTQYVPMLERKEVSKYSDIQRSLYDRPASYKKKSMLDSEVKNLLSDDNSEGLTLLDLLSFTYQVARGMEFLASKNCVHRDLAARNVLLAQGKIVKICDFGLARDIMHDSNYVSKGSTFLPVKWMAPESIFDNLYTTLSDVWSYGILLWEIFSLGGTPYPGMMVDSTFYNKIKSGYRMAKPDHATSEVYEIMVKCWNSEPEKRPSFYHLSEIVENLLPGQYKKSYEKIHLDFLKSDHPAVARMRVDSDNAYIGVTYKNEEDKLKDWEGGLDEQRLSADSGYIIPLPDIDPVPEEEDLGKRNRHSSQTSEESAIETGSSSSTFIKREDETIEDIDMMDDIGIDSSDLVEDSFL
Chain of Serine/threonine-protein kinase Nek7 (Homo sapiens) (Q8TDX7 whole entry, looked up): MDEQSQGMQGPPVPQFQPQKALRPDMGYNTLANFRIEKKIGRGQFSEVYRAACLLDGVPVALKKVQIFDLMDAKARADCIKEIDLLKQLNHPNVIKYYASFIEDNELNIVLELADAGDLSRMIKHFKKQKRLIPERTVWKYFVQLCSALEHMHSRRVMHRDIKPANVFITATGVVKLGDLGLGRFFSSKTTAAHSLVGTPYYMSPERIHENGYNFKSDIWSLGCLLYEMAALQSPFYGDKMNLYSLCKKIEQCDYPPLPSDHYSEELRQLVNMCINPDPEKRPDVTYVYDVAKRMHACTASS
Chain of Serine/threonine-protein kinase PRP4 homolog (Homo sapiens) (Q13523 whole entry): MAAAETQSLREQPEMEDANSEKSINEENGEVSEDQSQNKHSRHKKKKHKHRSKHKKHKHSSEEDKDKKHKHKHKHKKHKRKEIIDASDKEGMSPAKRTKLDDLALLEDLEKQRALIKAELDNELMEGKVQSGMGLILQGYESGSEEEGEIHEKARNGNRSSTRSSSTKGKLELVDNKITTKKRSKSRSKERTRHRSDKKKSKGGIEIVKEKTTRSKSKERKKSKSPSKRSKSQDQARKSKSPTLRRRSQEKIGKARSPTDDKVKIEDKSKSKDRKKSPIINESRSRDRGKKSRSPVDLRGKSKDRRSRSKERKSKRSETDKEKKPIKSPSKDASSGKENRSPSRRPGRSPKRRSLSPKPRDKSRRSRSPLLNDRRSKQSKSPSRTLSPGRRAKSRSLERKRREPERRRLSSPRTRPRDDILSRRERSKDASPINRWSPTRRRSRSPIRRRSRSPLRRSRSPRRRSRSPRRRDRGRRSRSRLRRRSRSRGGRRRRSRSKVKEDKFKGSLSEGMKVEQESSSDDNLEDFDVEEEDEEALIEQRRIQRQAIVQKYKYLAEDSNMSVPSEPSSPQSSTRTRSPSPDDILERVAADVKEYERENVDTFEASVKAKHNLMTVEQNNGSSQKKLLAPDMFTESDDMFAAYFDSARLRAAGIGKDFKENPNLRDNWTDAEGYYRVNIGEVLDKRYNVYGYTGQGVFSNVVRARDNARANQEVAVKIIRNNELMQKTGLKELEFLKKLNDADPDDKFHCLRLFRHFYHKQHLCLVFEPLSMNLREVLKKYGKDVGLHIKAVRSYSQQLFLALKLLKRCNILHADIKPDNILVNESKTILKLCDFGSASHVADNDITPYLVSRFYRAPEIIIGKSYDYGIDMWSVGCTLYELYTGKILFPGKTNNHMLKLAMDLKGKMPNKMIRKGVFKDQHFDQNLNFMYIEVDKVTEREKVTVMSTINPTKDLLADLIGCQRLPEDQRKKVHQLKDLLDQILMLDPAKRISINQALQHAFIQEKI
Chain of Interleukin-1 receptor-associated kinase 1 (Homo sapiens) (P51617 whole entry, looked up): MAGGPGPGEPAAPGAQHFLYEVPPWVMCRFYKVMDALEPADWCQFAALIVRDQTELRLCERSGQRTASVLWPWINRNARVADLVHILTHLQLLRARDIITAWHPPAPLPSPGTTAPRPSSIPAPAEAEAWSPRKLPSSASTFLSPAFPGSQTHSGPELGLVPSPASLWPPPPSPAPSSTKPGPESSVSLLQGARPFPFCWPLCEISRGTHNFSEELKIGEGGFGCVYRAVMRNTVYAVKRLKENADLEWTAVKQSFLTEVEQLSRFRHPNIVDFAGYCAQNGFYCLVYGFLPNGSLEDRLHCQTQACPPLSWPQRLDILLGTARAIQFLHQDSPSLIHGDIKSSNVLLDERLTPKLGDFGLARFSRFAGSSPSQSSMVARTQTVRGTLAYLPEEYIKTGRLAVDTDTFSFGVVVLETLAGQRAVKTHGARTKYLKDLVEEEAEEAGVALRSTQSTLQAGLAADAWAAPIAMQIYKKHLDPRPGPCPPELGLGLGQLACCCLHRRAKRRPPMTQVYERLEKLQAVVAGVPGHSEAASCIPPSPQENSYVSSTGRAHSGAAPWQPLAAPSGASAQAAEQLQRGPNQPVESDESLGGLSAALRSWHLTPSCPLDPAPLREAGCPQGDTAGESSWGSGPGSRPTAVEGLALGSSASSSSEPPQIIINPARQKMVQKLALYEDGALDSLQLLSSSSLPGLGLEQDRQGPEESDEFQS

SMILES: CNC(=O)Nc1ccc(-c2nc(N3CC4CCC(C3)O4)c3cnn(C4CCC5(CC4)OCCO5)c3n2)cc1
- % of inhibition [2]: -3%

SMILES: CCN(CC)CCCCNc1ncc2cc(-c3cc(OC)cc(OC)c3)c(NC(=O)NC(C)(C)C)nc2n1
- % of control [3]: 100%

SMILES: Nc1cnc(N2CCc3cc(S(=O)(=O)Nc4c(F)cc(Cl)cc4F)cc(N4CCCC4=O)c32)nc1 [TP-020n]
- % of control [5]: 76%

SMILES: N#Cc1cccc(-c2c[nH]c3ncnc(N4CCOCC4)c23)c1
- % of inhibition [6]: 21%

Other lines, results leading:

- % of inhibition [1]: -6.48%
SMILES: Cn1cc(-n2cnc3c(NCc4nc5cc(Cl)c(Cl)cc5[nH]4)nc(N4CCOCC4)nc32)cn1

- % of inhibition [4]: 6.26%
SMILES: CC[C@@H]1[C@H](F)C(=O)N[C@@H]1COc1nccc2cc(C(N)=O)c(OC)cc12 [ZIMLOVISERTIB]
